Laboratory results reported in the NIST ThermoML archive (doi:10.1021/je900653p).
± gives the expanded uncertainty stated by the source.

conditions: Crystal

SMILES | Normal melting temperature
CC12CCC(CC1)C(C)(C)O2 [1,3,3-trimethyl-2-oxabicyclo[2.2.2]octane] | 1.2 ± 1.2 °C
Cc1ccc(C(C)C)cc1 [1-(1-methylethyl)-4-methylbenzene] | -68.5 ± 0.8 °C
C=C1C2CCC(C2)C1(C)C (centres undefined) [2,2-dimethyl-3-methylenebicyclo[2.2.1]heptane] | 51.1 ± 0.8 °C
C=C1CC[C@H]2C[C@@H]1C2(C)C [(1S,5S)-6,6-dimethyl-2-methylenebicyclo[3.1.1]heptane] | -61.5 ± 0.8 °C
